# Reference: US20100203647A1, “Chemical Reporters of Protein Acylation” (THE ROCKEFELLER UNIVERSITY, priority 2008, published 2010)
# Experiments:
# [1] = test system: Jurkat cells; experiment: Metabolic labeling with inhibitors; details: from CHX and NH2OH sensitivity in Jurkat cell lysates
# [2] = test system: M. smegmatis; experiment: Labeling of acylated proteins in bacterial cells with alkynyl-chemical reporters; assay type: cell-based
# [3] = In vivo labeling of acylated proteins after intraperitoneal injection of alkynyl-chemical reporters; details: mice, one hour, splenocytes, liver
# Procedure: (§1) Livers were harvested and incubated with Liberase 3 Blendzyme™ (Roche, Mannheim, Germany) at 37° C. for 30 minutes+ and homogenized prior to filtration with 0.4 μm cell strainers. Splenocytes were prepared by manual disruption of spleens using forceps. Liver and splenocyte preparations were subjected to red blood cell lysis using ACK lysis buffer.
# as §1, with “Livers and kidney” for “Livers”, “Blendzyme” for “Blendzyme™”, “minutes” for “minutes+”, “Liver, kidney” for “Liver”
# [4] = molecular target: T1, Fyn (Homo sapiens, UniProt P06241, G2A); experiment: Alkynyl-fatty acid labeling of wild type, G2A and C3,6S Fyn overexpressed in HeLa cells, immunoprecipitation; assay type: cell-based; details: 20 μM reporter
# T1 construct: expressed in transfected cells; host or cells: HeLa cells
# T1 sequence (P06241 2-537 G2A): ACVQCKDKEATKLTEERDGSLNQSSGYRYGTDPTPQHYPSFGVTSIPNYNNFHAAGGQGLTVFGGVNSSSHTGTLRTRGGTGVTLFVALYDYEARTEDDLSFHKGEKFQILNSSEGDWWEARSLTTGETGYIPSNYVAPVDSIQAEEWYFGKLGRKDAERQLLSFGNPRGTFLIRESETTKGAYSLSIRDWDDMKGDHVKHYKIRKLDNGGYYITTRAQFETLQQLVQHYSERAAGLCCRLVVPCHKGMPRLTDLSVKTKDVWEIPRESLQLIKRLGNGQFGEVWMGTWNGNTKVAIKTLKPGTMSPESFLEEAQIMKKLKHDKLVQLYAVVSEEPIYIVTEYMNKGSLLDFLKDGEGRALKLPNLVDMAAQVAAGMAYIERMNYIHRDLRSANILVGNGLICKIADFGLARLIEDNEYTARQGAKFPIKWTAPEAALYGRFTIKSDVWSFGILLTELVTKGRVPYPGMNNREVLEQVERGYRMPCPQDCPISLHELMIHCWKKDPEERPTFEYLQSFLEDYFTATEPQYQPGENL
# Procedure: (§2) HeLa cells were grown in 10 cm dishes to approximately 90% confluence in DMEM, supplemented with 10% FBS, and transfected with wildtype, G2A or C3,6S Fyn constructs using Lipofectamine 2000 (Invitrogen). The human Fyn constructs, wild type and mutant Fyn cDNAs cloned into eukaryotic expression vector pCMV5, were gifts from Dr. Marilyn Resh, Memorial Sloan-Kettering Cancer Center. The following day, cells were metabolically labeled with alkynyl-fatty acid analogs as described above.
# (§3) Cell lysates were collected after centrifuging at 1,000 g for 5 minutes at 4° C. to remove cell debris. Protein concentration was determined by the BCA assay. Typical lysate protein concentration obtained: 6-8 mg/mL. LAT, Lck and Ras proteins were immunoprecipitated from 200 μg Jurkat cell lysate using the following antibodies at recommended concentrations: mouse anti-Lck (p56lck) monoclonal (Clone 3A5, Thermo Scientific, Waltham, Mass., USA), rat anti-v-H-ras (Ab-1) monoclonal (Y13-259 agarose conjugate, Calbiochem, San Diego, Calif., USA), and rabbit anti-LAT polyclonal (Millipore, Billerica, Mass., USA). A rabbit anti-Fyn polyclonal (Millipore, Billerica, Mass., USA) was used to immunoprecipitate wild type and mutant Fyn proteins from transfected and metabolically labeled HeLa cells. 25 μL of packed protein A-agarose beads (Roche, Mannheim, Germany) was used per sample.
# [5] = molecular target: T2, Fyn (Homo sapiens, UniProt P06241, C3S/C6S); experiment: as above; assay type: cell-based; details: 20 μM reporter
# T2 construct: expressed in transfected cells; host or cells: HeLa cells
# T2 sequence (P06241 2-537 C3S/C6S): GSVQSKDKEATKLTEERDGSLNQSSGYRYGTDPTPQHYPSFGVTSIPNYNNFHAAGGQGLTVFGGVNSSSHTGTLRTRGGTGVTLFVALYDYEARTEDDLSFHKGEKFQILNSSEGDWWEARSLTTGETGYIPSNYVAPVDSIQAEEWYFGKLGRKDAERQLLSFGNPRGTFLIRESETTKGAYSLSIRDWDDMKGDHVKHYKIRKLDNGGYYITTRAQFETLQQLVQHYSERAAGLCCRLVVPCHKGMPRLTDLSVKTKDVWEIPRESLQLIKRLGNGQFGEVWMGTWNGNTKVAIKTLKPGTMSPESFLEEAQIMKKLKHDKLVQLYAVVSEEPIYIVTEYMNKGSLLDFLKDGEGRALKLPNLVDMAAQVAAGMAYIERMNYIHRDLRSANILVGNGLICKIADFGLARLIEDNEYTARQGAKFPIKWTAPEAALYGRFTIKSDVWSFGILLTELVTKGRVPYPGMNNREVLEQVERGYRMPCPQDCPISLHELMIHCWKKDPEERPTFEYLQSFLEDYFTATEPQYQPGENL
# Procedure: as §2, §3
# [6] = molecular target: T3, Fyn (Homo sapiens, UniProt P06241); experiment: as above; assay type: cell-based; details: 20 μM reporter
# T3 construct: expressed in transfected cells; host or cells: HeLa cells
# T3 sequence (P06241 2-537): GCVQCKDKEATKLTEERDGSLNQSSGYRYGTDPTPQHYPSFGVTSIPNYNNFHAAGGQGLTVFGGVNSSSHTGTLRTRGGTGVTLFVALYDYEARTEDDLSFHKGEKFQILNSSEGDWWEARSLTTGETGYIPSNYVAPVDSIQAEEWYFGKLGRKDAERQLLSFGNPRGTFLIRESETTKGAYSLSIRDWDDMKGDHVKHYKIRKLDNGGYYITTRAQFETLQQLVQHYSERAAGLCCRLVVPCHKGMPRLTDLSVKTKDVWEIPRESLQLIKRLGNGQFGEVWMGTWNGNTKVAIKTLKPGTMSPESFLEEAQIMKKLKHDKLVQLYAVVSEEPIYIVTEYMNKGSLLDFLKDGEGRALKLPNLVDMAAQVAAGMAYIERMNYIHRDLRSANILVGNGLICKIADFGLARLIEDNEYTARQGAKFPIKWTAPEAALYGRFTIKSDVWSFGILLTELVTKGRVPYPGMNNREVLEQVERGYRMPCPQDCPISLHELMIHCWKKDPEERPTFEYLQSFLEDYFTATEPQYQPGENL
# Procedure: as §2, §3
# [7] = test system: Lck and LAT; experiment: Hydroxylamine cleavage of S-acylated proteins (in-gel), immunoprecipitated Lck and LAT; assay type: cell-based, human; details: 1 M NH2OH pH 7.4; alk-16 on Lck and LAT, alk-12 on Lck
# Procedure: as §3
# The gel was finally washed with deionized water (2×5 minutes) and scanned for the post-hydroxylamine treatment fluorescence.
# [8] = test system: metabolic incorporation of chemical reporters; experiment: Effect of inhibitors/additives on metabolic incorporation of alkynyl-chemical reporters; assay type: cell-based
# [9] = test system: Lck; experiment: Pulse-chase tandem imaging of palmitate turnover on Lck in Jurkat T cells; assay type: cell-based, human; details: over 6 hours
# [10] = molecular target: T4, p300 (Homo sapiens, UniProt Q09472); experiment: In vitro acylation of histone H3 protein by p300 and mapping of modification sites (spectral counts, nano-HPLC/MS/MS); assay type: biochemical
# T4 construct: made in house; host or cells: SF9 insect cells, baculovirus
# T4 sequence (Q09472 whole entry): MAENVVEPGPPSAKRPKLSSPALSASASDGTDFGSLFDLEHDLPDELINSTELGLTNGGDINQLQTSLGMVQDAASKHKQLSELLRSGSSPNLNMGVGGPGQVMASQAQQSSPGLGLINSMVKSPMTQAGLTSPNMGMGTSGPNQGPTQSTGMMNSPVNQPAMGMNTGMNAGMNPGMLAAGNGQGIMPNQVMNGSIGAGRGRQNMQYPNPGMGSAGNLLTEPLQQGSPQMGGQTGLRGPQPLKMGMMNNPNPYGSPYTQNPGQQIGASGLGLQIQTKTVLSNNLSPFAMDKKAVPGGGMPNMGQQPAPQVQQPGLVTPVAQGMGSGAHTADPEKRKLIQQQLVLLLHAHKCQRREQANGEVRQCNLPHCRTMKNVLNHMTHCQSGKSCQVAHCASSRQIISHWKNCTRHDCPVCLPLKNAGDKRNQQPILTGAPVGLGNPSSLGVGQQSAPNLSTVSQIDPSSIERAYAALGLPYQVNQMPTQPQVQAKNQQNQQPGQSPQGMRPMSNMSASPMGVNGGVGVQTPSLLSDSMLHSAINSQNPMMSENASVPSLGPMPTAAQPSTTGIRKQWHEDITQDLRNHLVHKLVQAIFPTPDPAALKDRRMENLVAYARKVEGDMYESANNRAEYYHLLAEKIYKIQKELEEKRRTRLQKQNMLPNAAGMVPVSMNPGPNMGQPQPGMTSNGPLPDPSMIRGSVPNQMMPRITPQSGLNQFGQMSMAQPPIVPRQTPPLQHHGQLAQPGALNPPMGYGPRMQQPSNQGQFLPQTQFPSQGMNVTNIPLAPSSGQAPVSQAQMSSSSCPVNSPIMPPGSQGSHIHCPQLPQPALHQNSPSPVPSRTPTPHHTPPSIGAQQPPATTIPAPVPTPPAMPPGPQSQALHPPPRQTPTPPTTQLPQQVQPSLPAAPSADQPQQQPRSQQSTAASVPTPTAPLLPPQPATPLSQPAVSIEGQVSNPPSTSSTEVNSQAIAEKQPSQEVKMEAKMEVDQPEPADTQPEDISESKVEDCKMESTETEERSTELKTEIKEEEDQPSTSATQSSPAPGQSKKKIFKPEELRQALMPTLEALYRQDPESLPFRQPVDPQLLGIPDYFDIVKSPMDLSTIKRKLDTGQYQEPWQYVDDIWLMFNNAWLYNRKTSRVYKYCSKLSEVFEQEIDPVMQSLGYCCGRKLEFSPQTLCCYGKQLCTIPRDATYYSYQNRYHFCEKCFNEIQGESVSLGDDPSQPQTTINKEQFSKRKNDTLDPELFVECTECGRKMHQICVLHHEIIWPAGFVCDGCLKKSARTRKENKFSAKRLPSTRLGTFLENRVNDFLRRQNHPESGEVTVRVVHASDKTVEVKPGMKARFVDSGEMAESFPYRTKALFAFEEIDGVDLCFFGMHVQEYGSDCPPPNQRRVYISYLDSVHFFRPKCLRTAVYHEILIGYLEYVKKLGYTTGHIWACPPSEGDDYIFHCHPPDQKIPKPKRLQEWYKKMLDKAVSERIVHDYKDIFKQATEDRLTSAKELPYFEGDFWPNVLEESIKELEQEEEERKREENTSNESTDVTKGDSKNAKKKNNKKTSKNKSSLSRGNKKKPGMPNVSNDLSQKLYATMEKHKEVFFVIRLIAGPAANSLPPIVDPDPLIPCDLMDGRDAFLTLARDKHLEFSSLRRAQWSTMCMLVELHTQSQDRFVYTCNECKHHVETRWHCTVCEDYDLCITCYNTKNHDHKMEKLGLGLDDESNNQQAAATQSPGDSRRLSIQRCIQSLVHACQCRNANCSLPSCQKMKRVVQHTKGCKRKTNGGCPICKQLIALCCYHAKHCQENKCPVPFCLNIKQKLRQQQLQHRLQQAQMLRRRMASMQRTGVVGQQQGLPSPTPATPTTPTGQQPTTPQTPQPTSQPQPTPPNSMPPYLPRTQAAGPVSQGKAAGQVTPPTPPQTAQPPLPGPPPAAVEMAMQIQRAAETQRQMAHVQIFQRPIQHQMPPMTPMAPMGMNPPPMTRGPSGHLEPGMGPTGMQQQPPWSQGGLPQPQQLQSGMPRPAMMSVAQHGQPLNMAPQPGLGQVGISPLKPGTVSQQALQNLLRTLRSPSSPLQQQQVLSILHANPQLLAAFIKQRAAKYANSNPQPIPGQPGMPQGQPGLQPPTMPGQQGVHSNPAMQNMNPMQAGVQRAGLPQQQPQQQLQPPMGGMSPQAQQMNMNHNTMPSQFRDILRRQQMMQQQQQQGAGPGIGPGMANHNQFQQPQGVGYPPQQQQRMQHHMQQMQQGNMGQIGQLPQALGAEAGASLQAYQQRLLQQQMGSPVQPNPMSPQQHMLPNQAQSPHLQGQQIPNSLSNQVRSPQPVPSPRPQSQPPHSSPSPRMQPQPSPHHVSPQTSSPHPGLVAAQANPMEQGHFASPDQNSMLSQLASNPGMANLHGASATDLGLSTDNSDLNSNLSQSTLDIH
# Procedure: Following the in vitro reaction, proteins were separated on 15% SDS-PAGE and stained with coomassie brilliant blue R-250 staining solution (Bio-Rad). The gel slices containing histone H3 products were excised from each lane, washed with 50 mM ammonium bicarbonate (ABC) twice, destained with 50 mM ABC/CH3CN (50/50) twice and dehydrated with CH3CN. After drying the gel slices in a SpeedVac, gel slices were rehydrated with trypsin solution (2 μg of trypsin for each vial/gel slice) and incubated in 37° C. water bath for 18 hrs. Trypsin-digested peptides in solution were collected, dried in SpeedVac, resuspended in H2O (with 0.1% TFA) and submitted samples to nano-HPLC/MS/MS analysis (Thermo LTQ-Orbitrap in the Proteomic Resource Center at Rockefeller University).
# LC-MS analysis was performed with a Dionex 3000 nano-HPLC coupled to an LTQ-Orbitrap ion trap mass spectrometer (ThermoFisher). Peptides were pressure loaded onto a home made 75 μm diameter, 15 cm C18 reverse phase column and separated with a gradient running from 95% buffer A (HPLC water with 0.1% formic acid) and 5% buffer B (HPLC grade acetonitrile with 0.1% formic acid) to 55% B over 30 min, next ramping to 95% B over 10 min and holding 95% B for 10 min. One full MS scan (300-2000 MW) was followed by 3 data dependent scans of the nth most intense ions with dynamic exclusion enabled. The spray voltage was set to 1.94 kV and the flow rate through the column was set to 0.25 μL/min.
# Raw tandem mass spectra were searched against the human IPI protein database version 3.56 using SEQUEST search engine (Thermo Scientific). Cysteine carbamido-methylation was searched as fixed modification, while methionine/tryptophan oxidation, asparagines/glutamine deamindation, lysine/serine/threonine/cysteine acetylation, N-terminal acetylation/3-butynylation/4-pentynylation/5-hexynylation and lysine 3-butynylation/4-pentynylation/5-hexynylation were searched as variable modifications. Peptide tolerance was set as 10.0 ppm, fragment ion tolerance was set as 1.0 AMU and trypsin was set as the digestion enzyme. The resulting searching files were then analyzed and visualized by Scaffold 2 proteome software.
# Each identified protein must contain at least 2 unique peptides that are exclusively assigned to this protein with a minimum protein identification probability of 99%. Each peptide spectrum must meet several selection thresholds including >95% for peptide identification probability, >1.0 for SEQUEST XCorr score, and ±6 ppm for actual minus calculated peptide mass.
# [11] = molecular target: T4, p300; experiment: MALDI-TOF analysis of p300-catalyzed acylation of histone H3 peptide in vitro; assay type: biochemical; details: 20 μM analog, MS analysis
# Procedure: Cells were lysed in lysis buffer (20 mM Tris, pH 7.5, 500 mM NaCl, 4 mM MgCl2, 0.4 mM EDTA, 20% glycerol, 2 mM DTT, and supplemented with protease inhibitors). Clarified cell lysates were diluted to 300 mM NaCl, and NP-40 was added to 0.1% final concentration. Flag M2 agarose resin (Sigma) was added to the lysate and incubated for 4 hours at 4° C. […] Protein concentration and purity were estimated by comparison to BSA standards on SDS gels stained with Gelcode Blue stain (Pierce).
# [12] = molecular target: T4, p300; experiment: In-gel fluorescent detection of p300-catalyzed in vitro acylation of histone H3; assay type: biochemical; details: CuAAC with az-Rho, in-gel fluorescence
# Text: CuAAC reactions were allowed to proceed at room temperature for 1 hr, and proteins were subsequently separated on 15% SDS-PAGE. The gels were soaked in destaining solution (40% MeOH, 10% AcOH, 50% H2O) for 1-2 hrs to remove the non-covalently bound az-Rho dye. After washing with dd H2O, the gel was subjected to in-gel fluorescence scanning.
# [13] = lysine-modified peptide, H3 + acyl-CoA + p300
# [14] = lysine-modified peptide, H3 + acyl-CoA, without p300
compound,measurement,setting,value
"C#CCCCCCCCCCCCC(=O)O [alk-12, Tetradec-13-ynoic acid]",class of acylated proteins targeted by the reporter,[1],cotranslationally targets N-myristoylated proteins
same,labeling of proteins in bacterial cells,[2],labeled distinct proteins
same,profile of acylated proteins after in vivo labeling,[3],discrete profile of acylated proteins from splenocytes similar to ex vivo labeling
same,labeling of N-myristoylation G2A-mutant Fyn,[4],significantly reduced
same,"labeling of dual S-palmitoylation-deficient C3,6S mutant Fyn",[5],efficiently labeled
same,fatty-acylation of wild-type Fyn,[6],readily detected
same,effect of in-gel NH2OH treatment on fluorescent signal of reporter-labeled protein,[7],did not alter
CCCC(=O)O [butyric acid],effect on labeling of acetylated proteins with alk-4,[8],inhibited
"C#CCCCCCCCCCCCCCCCC(=O)O [alk-16, Octadec-17-ynoic acid]",class of acylated proteins targeted by the reporter,[1],preferentially labels S-acylated proteins
same,labeling of proteins in bacterial cells,[2],labeled distinct proteins
same,profile of acylated proteins after in vivo labeling,[3],did not reveal discrete profiles of acylated proteins in splenocytes or liver
same,labeling of N-myristoylation G2A-mutant Fyn,[4],undetectable
same,fatty-acylation of wild-type Fyn,[6],readily detected
same,decay of reporter signal on Lck with excess myristate as the chase additive,[9],No significant decay
same,effect of in-gel NH2OH treatment on fluorescent signal of reporter-labeled protein,[7],reduced the fluorescent signal
5-hexynyl-CoA [Analog 3],Spectral Counts of Peptide EIAQDFK (73-79) (SEQ ID NO: 7),[10]; H3 + acyl-CoA + p300,89
same,Spectral Counts of Peptide KLPFQR (64-69) (SEQ ID NO: 6),[10]; H3 + acyl-CoA + p300,8
same,Spectral Counts of Peptide KQLATK (18-23) (SEQ ID NO: 1),[10]; H3 + acyl-CoA + p300,10
same,Spectral Counts of Peptide KSAPATGGVK (27-36) (SEQ ID NO: 2),[10]; H3 + acyl-CoA + p300,38
same,Spectral Counts of Peptide SAPATGGVK (28-36) SEQ ID NO: 3,[10]; H3 + acyl-CoA + p300,17
same,Spectral Counts of Peptide STELLIR (57-63) (SEQ ID NO: 5),[10]; H3 + acyl-CoA + p300,16
same,Spectral Counts of Peptide VTIMPK (117-122) (SEQ ID NO: 9),[10]; H3 + acyl-CoA + p300,8
same,Spectral Counts of Peptide YRPGTVALR (41-49) (SEQ ID NO: 4),[10]; H3 + acyl-CoA + p300,57
same,Spectral Counts of Peptide EIAQDFK (73-79) (SEQ ID NO: 7),"[10]; H3 + acyl-CoA, without p300",74
same,Spectral Counts of Peptide KQLATK (18-23) (SEQ ID NO: 1),"[10]; H3 + acyl-CoA, without p300",4
same,Spectral Counts of Peptide KSAPATGGVK (27-36) (SEQ ID NO: 2),"[10]; H3 + acyl-CoA, without p300",36
same,Spectral Counts of Peptide RVTIMPK (116-122) (SEQ ID NO: 8),"[10]; H3 + acyl-CoA, without p300",1
same,Spectral Counts of Peptide SAPATGGVK (28-36) SEQ ID NO: 3,"[10]; H3 + acyl-CoA, without p300",12
same,Spectral Counts of Peptide STELLIR (57-63) (SEQ ID NO: 5),"[10]; H3 + acyl-CoA, without p300",7
same,Spectral Counts of Peptide VTIMPK (117-122) (SEQ ID NO: 9),"[10]; H3 + acyl-CoA, without p300",3
same,Spectral Counts of Peptide YRPGTVALR (41-49) (SEQ ID NO: 4),"[10]; H3 + acyl-CoA, without p300",47
same,"Spectral Counts of Peptide KQLATK (18-23, K18) (SEQ ID NO: 13)",[10]; [13],19
same,"Spectral Counts of Peptide KQLATKAAR (18-26, K18, K23) (SEQ ID NO: 15)",[10]; [13],18
same,"Spectral Counts of Peptide KSAPATGGVK (27-36, K27) (SEQ ID NO: 17)",[10]; [13],12
same,"Spectral Counts of Peptide KSTGGKAPR (9-17, K9, K14) (SEQ ID NO: 11)",[10]; [13],2
same,"Spectral Counts of Peptide KSTGGKAPR (9-17, K14) (SEQ ID NO: 10)",[10]; [13],11
same,"Spectral Counts of Peptide QLATKAAR (19-26, K23) (SEQ ID NO: 16)",[10]; [13],1
same,"Spectral Counts of Peptide KQLATK (18-23, K18) (SEQ ID NO: 13)",[10]; [14],2
same,"Spectral Counts of Peptide KSAPATGGVK (27-36, K27) (SEQ ID NO: 17)",[10]; [14],2
same,"Spectral Counts of Peptide KSTGGKAPR (9-17, K14) (SEQ ID NO: 10)",[10]; [14],2
same,utilization as acyl-CoA donor for p300-catalyzed acylation of histone H3 peptide,[11],less efficient acyl-donor substrate
same,visualization of p300-acylation of histone H3,[12],serve as sensitive reagents for visualizing p300-acylation of histone H3
